Measured values from US6489320B1, “5, 5-disubstituted-1, 5-dihydro-4, 1-benzoxazepin-2 (3H)-ones useful as HIV reverse transcriptase inhibitors” (Bristol-Myers Squibb Pharma Company, priority 1997, dated 2002).
Values after ≈ are worked out from the molar mass of the structure shown.

Legend:
[1] = test system: HIV-1 (RF); assay: HIV RNA assay: microplate based compound evaluation in HIV-1 infected MT-2 cells; format: cell-based; conditions: Human immunodeficiency virus 1, MT2, 72 h; HIV-1 (RF) infected MT-2 cells, 3 days; virus dilutions selected to give this value (standardization of inoculum); read-out: IC90 value (concentration of compound required to reduce the HIV RNA level by 90%)
Method: Plasmid pDAB 72 containing both gag and pol sequences of BH10 (bp 113-1816) cloned into PTZ 19R was prepared according to Erickson-Viitanen et al. AIDS Research and Human Retroviruses 1989, 5, 577. The plasmid was linearized with Bam HI prior to the generation of in vitro RNA transcripts using the Riboprobe Gemini system II kit (Promega) with T7 RNA polymerase. Synthesized RNA was purified by treatment with RNase free DNAse (Promega), phenol-chloroform extraction, and ethanol precipitation. RNA transcripts were dissolved in water, and stored at −70° C. The concentration of RNA was determined from the A260.
Biotinylated capture probes were purified by HPLC after synthesis on an Applied Biosystems (Foster City, Calif.) DNA synthesizer by addition of biotin to the 5′ terminal end of the oligonucleotide, using the biotin-phosphoramidite reagent of Cocuzza, Tet. Lett. 1989, 30, 6287. […]
MT-2 and MT-4 cells were maintained in RPMI 1640 supplemented with 5% fetal calf serum (FCS) for MT-2 cells or 10% FCS for MT-4 cells, 2 mM L-glutamine and 50 μg/mL gentamycin, all from Gibco. […] Infectious titers of HIV-1(RF) stocks were 1-3×10^7 PFU (plaque forming units)/mL as measured by plaque assay on MT-2 cells (see below). […]

Compound	melting point [°C]	IC90 [1] [µg/mL]
CC(C)/C=C/C1(C(F)(F)F)OCC(=O)Nc2ccc(Cl)cc21 (stereo not drawn) [Example 20, trans-7-Chloro-5-(2-isopropylethenyl)-1,5-dihydro-5-(trifluoromethyl)-4,1-benzoxazepin-2(3H)-one]	148 to 149	
COc1ccc2c(c1)C(CCC(C)C)(C(F)(F)F)OCC(=O)N2 (stereo not shown) [Example 21, 7-Methoxy-5-(3-methylbutyl)-1,5-dihydro-5-(trifluoromethyl)-4,1-benzoxazepin-2(3H)-one]	129 to 130	
O=C1COC(C#Cc2cccnc2)(C(F)(F)F)c2cc(Cl)ccc2N1 (stereo not shown) [Example 24, 7-Chloro-5-(3-pyridylethynyl)-1,5-dihydro-5-(trifluoromethyl)-4,1-benzoxazepin-2(3H)-one]	219 to 221	
CC(C)/C=C/C1(C(F)(F)F)OCC(=O)Nc2ccc(F)c(F)c21 (stereo not drawn) [Example 27, trans-6,7-Difluoro-5-(2-isopropylethenyl)-1,5-dihydro-5-(trifluoromethyl)-4,1-benzoxazepin-2(3H)-one]	159 to 160	
C[C@@H]1O[C@](C#CC2CC2)(C(F)(F)F)c2cc(Cl)ccc2NC1=O [Example 36, (+)-(3S,5S)-7-Chloro-5-cyclopropylethynyl-1,5-dihydro-3-methyl-5-(trifluoromethyl)-4,1-benzoxazepin-2(3H)-one]	145 to 146	
C[C@@H]1O[C@](/C=C/C2CC2)(C(F)(F)F)c2cc(Cl)ccc2NC1=O [Example 39, (+)-(3S,5S)-trans-7-Chloro-5-(2-cyclopropylethenyl)-1,5-dihydro-3-methyl-5-(trifluoromethyl)-4,1-benzoxazepin-2(3H)-one]	175 to 175.5	
Nc1ccn([C@H]2CC[C@@H](CO)O2)c(=O)n1 [ddC, 2′,3′-dideoxycytidine]		0.2 (≈ 0.947 µM)
